Experimental findings from US6900210B2, “Pyridinyl, pyrimidinyl and pyrazinyl amides as potassium channel openers” (Bristol-Myers Squibb Company, priority 2002, dated 2005) are described below.

One assay addresses T1, mKCNQ2 channels (Mus musculus, UniProt Q9Z351).
T1 construct: expressed in transfected cells
Nature of the assay: Whole-cell patch-clamp recordings of mKCNQ2 currents. It is filed as cell-based. The note with it: HEK 293 stable cell line expressing mKCNQ2; for EC50: @ −40 mV, room temperature; for Imax (%): maximal current from Hill-type fit. As for the experimental part:
Whole-cell patch-clamp recordings were made from an HEK 293 stable cell line expressing mKCNQ2 channels, maintained in culture for 1-2 days. Patch pipettes had initial resistances of 2.5-4 MQ. Currents were recorded with an EPC9 amplifier (HEKA, Lambrecht, Germany) controlled with software (Pulse, HEKA) run on a standard lab PC. Series resistance compensation was used during current recording, and set at 80%. The series resistance (R) and cell capacitance (C) were determined electronically by subtracting the capacitive currents at the onset and offset of a 5 mV voltage step. The cancellation of wholecell capacitive transients was virtually complete in all cells. Analog current signals were low-pass filtered at 2.9 kHz using a four-pole Bessel filter −3 dB) and stored on a local network server computer at a sampling rate of 1.5 kHz. All recordings were performed at room temperature (20-22° C.). The pipette solution contained (mM): KCl, 150; CaCl2, 2.5; EGTA, 5; MgCl2, 1; HEPES, 10; pH to 7.3 with KOH, and Osmolality of 290-300 mOsm. The extracellular solution contained (mM): NaCl, 140; KCl, 2.5; CaCl2, 2.5; MgCl2, 1; glucose, 10; HEPES, 10; pH to 7.3 with NaOH, and Osmolality of 305-310 mOsm
Concentration response data were generated by measuring the difference in the steady-state amplitude of current in the presence of compound at the end of a 600 ms voltage-clamp step from a holding potential of −80 mV. The concentration-response data were fitted with Hill-type equations: I=Imax/(1+EC50/[A]^nH), where I is the steady-state current at a given concentration of agonist [A]; and Imax, EC50 and nH are parameters estimated from the curve fit. In some cases the concentration-response data were fitted with equations consisting of the sum of two Hill-type components. Current-voltage (IN) relationships for agonist-evoked currents were obtained by performing 600 ms voltage steps (−110 mV to +40 mV) in the absence and presence of agonist.
On the technique in general: In patch-clamp work, channel activity is measured electrically.

For assay [1], the system named is nerve injury-induced tactile allodynia. Nature of the assay: Chung model of neuropathic pain (Chung surgery and von Frey test). The class given is in vivo, Sprague Dawley rats. The settings on record: i.v., rat, von Frey thresholds over 90 min, % MPE (Drug AUC) − % MPE (Vehicle AUC). As for the experimental part: To test agents for activity against peripheral mononeuropathy nerve injury-induced tactile allodynia, male Sprague Dawley rats (wt. 120-160 g) were surgically prepared with unilateral tight ligation of spinal nerves L5 and L6 following the method of Kim and Chung (Kim S. H., Chung J. M. (1992) Pain, September; 50(3):355-63). After 3-4 weeks recovery, paw withdrawal to light touch was assessed as described by Chaplan et al. (Chaplan S. R., et al., (1994) J. Neurosci Methods, July; 53(1):55-63). In brief, rats are placed in a plastic cage with a wire mesh bottom and allowed to acclimate for 15-30 minutes, until cage exploration and grooming stops. […] After acclimation, baseline von Frey thresholds were assessed for the injured hindpaw at −15 min. […] Following drug administration, von Frey thresholds are measured at 15, 30, 60 and 90 min. Data were analyzed by a 2-way repeated measures analysis of variance followed by Dunnett's test (p<0.05). […]
Reversal of neuropathic pain behavior may be expressed as a percentage (0-100%) of the maximum possible effect, over and above the vehicle effects. […]
For example, a compound which immediately reversed neuropathic pain behavior to normal levels, such that animals only responded to the highest von Frey filament (15 g), and maintained normal levels through out the post-drug testing period (90 min) would be calculated as Δ% MPE=100%.

T1 sequence (Q9Z351 whole entry): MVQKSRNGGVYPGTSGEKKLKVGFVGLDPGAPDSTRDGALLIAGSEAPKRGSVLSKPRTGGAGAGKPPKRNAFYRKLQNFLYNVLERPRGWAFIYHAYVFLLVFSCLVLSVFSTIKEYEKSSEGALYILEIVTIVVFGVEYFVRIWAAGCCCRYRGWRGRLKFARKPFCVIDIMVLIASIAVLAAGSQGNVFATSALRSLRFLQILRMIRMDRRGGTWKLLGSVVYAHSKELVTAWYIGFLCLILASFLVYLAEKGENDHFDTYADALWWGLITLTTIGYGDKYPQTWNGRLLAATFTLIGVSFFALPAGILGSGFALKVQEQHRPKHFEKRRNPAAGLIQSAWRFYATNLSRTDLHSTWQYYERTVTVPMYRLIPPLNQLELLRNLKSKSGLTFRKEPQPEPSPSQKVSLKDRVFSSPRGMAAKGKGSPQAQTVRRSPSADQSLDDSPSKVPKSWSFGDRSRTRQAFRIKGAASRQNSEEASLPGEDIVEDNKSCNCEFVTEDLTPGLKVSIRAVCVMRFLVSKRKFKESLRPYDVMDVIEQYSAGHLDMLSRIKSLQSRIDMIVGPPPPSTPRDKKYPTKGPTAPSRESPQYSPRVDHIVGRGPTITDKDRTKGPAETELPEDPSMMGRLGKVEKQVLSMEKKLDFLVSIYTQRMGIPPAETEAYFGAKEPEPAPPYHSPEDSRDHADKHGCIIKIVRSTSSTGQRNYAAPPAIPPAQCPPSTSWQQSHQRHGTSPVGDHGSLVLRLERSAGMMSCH

For orientation: EC50 means the concentration giving half of the maximal effect. For the molecule `C[C@H](NC(=O)/C=C/c1cc(F)ccc1F)c1cccc(Oc2ccccn2)c1` [Example 9, (S)-3-(2,5-Difluoro-phenyl)-N-{1-[3-(pyridin-2-yl-oxy)-phenyl]-ethyl}-acryl-amide], at mKCNQ2 channels, the EC50 amounted to 0.0012 µM and the “Imax (%)” value was found to be 200%.
The like results for `C[C@H](NC(=O)/C=C/c1cc(F)ccc1F)c1cccc(Oc2ccncc2)c1` [Example 45, (S)-3-(2,5-Difluoro-phenyl)-N-{1-[3-(pyridin-4-yl-oxy)-phenyl]-ethyl}-acryl-amide] were, in that order, 0.11 µM and 784%.
As for `C[C@H](NC(=O)/C=C/c1ccccc1F)c1cccc(Oc2cccnc2)c1` [Example 15, (S)-3-(2-Fluoro-phenyl)-N-{1-[3-(py-ridin-3-yloxy)-phen-yl]-ethyl}-acrylamide], the “AUC (Δ % MPE)” value in assay [1] (10 mg/kg) was 47 (10 mg/kg, i.v.) Δ % MPE. For the same molecule, at mKCNQ2 channels, a half-maximal effect (EC50) was put at 0.198 µM and the “Imax (%)” value is reported as 812%.
For the molecule `NCC1(CC(=O)O)CCCCC1` [Gabapentin, gabapentin, reference compound], the “AUC (Δ % MPE)” value in assay [1] (100 mg/kg) is recorded as 50 (100 mg/kg, i.v.) Δ % MPE.
On to “(S)-4-Phenyl)-N-[1-(3-py- ridin-3-yl-phenyl)-eth- yl]-butyramide [Example 25]”, for which, on mKCNQ2 channels, the EC50 was 0.001 µM and the “Imax (%)” value is 172%.
